Laboratory results taken from PMC5701947, “β1-Adrenergic Receptor Contains Multiple IA^k and IE^k Binding Epitopes That Induce T Cell Responses with Varying Degrees of Autoimmune Myocarditis in A/J Mice” (Frontiers in Immunology, 2017).
Residues, ends and D or L forms follow the SMILES beside them. No end group written: not given here.

Key:
[1] = test system: non-cardiac tissues (brain, lung, liver, kidney); conditions: mouse, in vivo
IA^k = target: T1, IA^k (Mus musculus, UniProt P01910+P06343); assay: MHC class II-binding assay, IA^k; design: species or system A/J mice; conditions: for IC50: competition with biotinylated HEL 46–61 (1 µM), empty IA^k monomers 0.35 µg, competitor 0.00001–100 µM, pH 7.0, overnight, RT, DELFIA europium fluorescence 340/615 nm, mean ± SEM, three experiments with two replicates each
T1 construct: soluble IA^k and IE^k monomers were expressed; class II-associated invariant-chain peptide (CLIP) 88–102 (VSQMRMATPLLMRPM) with thrombin cleavage site (cleaved yes); made in house; host or cells: baculovirus expression (sf9 cells are named only for the IA^k dextramer constructs)
Protocol: A/J mice express two MHC class II alleles, IA^k and IE^k ([33], [34]), and to determine the affinities of β1AR peptides, soluble IA^k and IE^k monomers were expressed ([34], [35]). In brief, the β-chain in each of IA^k and IE^k constructs contain sequence for class II-associated invariant-chain peptide 88–102 (VSQMRMATPLLMRPM) linked with thrombin cleavage site ([34], [35]). After expressing in the baculovirus, soluble IA^k and IE^k monomers were treated with thrombin (20 U/mg; Novagen, Madison, WI, USA) to release class II-associated invariant-chain peptide leading us to obtain empty IA^k and IE^k molecules. Reaction mixtures were prepared to include empty IA^k or IE^k monomers (0.35 µg), competitor peptides (β1ARAc 171–190, β1ARAc 181–200, β1ARAc 201–220, and β1ARAc 211–230) (0.00001–100 µM), and constant amounts of the biotinylated reference peptides HEL 46–61 (for IA^k) or MCC 82–103 (for IE^k) (1 µM) in a buffer containing 50 mM sodium phosphate pH 7.0, 100 mM sodium chloride, 1 mM EDTA, and 1 × protease inhibitor (Sigma-Aldrich, St. Louis, MO, USA) ([36]–[38]). After incubating overnight at RT, the mixtures were transferred to 96-well white fluorescence plates coated with anti-IA^k (clone 10-2.16, BioXcell, West Lebanon, NH, USA), and anti-IE^k (clone M5/114, BioXcell) Abs (10 µg/ml) in 0.2 M sodium phosphate buffer, pH 6.8, blocked with 2% bovine casein; and the plates were incubated on a rocker at RT for 1 h. Finally, after adding 100 µl of europium-labeled streptavidin (0.1 µg/ml) and dissociation-enhanced lanthanide fluoroimmunoassay (DELFIA) enhancement solution (Perkin Elmer) sequentially, fluorescence intensities were measured at excitation/emission wavelengths of 340/615 nm using a Victor Multilabel Plate Reader (Perkin Elmer). The IC50 values were determined based on the concentrations of competitor peptides needed to prevent 50% binding of the reference peptides as we have described previously ([26], [28], [30]).

CD4 and CD8 T cells = conditions: cited from earlier work
Text: Expectedly, sections from control groups were negative for all the markers tested except rare CD11b^+ cells.

A/J mice (hearts) = assay: Induction of myocarditis by active immunization with peptides (histology); assay type: in vivo
[2] = test system: T cells (lymph node cells/splenocytes from immunized animals); assay: T cell proliferation assay ([3H]-thymidine); assay type: cell-based, A/J mice; conditions: proliferation, 0–100 µg/ml, 2 days + 16 h [3H]-thymidine; cpm
Protocol: At termination, lymph nodes (maxillary, mandibular, axillary, inguinal, and popliteal) and spleens were harvested from immunized animals to prepare single cell suspensions. Similarly, splenocytes were prepared from naive animals. After lysing the erythrocytes and washing, cell pellets were suspended in RPMI medium containing 10% fetal bovine serum, 1 mM sodium pyruvate, 4 mM L-glutamine, 1 × each of non-essential amino acids and vitamin mixture, and 100 U/ml penicillin–streptomycin (Lonza, Walkersville, MD, USA; hereafter called growth medium). In some experiments, CD4 T cells and CD8 T cells were enriched to a purity of ~95% by negative selection based on magnetic separation using IMAG (BD Biosciences, San Jose, CA, USA) ([31]). To stimulate CD4 and CD8 T cells, syngeneic naive irradiated splenocytes loaded with peptides were used as antigen-presenting cells at a ratio of 1:1. Cells were stimulated at a density of ~5 × 10^6 cells/ml in triplicates with or without the immunizing peptides (0–100 µg/ml) in growth medium. RNase 43–56 or HEL 46–61 were used as irrelevant controls. After 2 days, cells were pulsed with tritiated ^3[H]-thymidine (1 μCi/well; MP Biomedicals, Santa Ana, CA, USA), and 16 h later, proliferative responses were measured as counts per minute (cpm) using a Wallac liquid scintillation counter (Perkin Elmer, Waltham, MA, USA) ([26], [28], [30]).

[3] = test system: serum antibodies (Igs and isotypes) of immunized mice; assay: ELISA, antibodies that react with β1ARAc peptides; assay type: in vivo, A/J mice; conditions: serum 1:100, day 21, OD 405 nm; for Antibody response, total Igs (in words): five animals per group
Protocol: ELISA was used to measure antibodies that react with β1ARAc peptides in the serum samples collected from immunized animals at termination on day 21 as described previously ([26]). […] After washing/blocking, serum samples (1:100) were added in duplicates, and the plates were incubated at 37°C for 1 h followed by addition of HRP-labeled goat anti-mouse immunoglobulins (Igs), IgG1, IgG2a, IgG2b, IgG3, IgM, IgA, and IgE (Southern Biotech, Birmingham, AL, USA) as secondary antibodies. Two hours after incubation at RT, 1 × tetramethylbenzidine solution was added as a substrate (eBioscience), and reactions were stopped using 1 M phosphoric acid. The plates were read at 405 nm using an automated ELISA reader (BioTek instruments, Winooski, VT, USA) to measure OD values ([26], [46]).

[4] = acetylated peptides in CFA/PT (100 µg individually, 50 µg each when pooled), days 0 and 7, day 21

T1 sequence (P01910 24-218 limits assumed): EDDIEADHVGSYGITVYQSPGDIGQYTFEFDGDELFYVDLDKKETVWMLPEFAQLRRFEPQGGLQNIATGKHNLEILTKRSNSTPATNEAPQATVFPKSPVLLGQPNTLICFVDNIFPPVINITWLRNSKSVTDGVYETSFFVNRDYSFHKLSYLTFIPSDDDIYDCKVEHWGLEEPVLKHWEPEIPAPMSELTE
T1 sequence (P06343 28-224 limits assumed): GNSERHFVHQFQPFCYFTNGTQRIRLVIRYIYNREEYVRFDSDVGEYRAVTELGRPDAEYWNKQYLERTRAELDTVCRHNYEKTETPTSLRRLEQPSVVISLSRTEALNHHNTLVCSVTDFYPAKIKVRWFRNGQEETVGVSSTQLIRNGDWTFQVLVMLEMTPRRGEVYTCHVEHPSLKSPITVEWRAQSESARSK

Compound | Brain, inflammatory foci [1] | Kidney, inflammatory foci [1] | Liver, inflammatory foci [1] | Lung, inflammatory foci [1] | IC50 (IA^k) | Brain, incidence (animals affected/total) [1] | Brain, incidence of inflammation [1] | Kidney, incidence (animals affected/total) [1] | Kidney, incidence of inflammation [1] | Liver, incidence (animals affected/total) [1] | Liver, incidence of inflammation [1] | Lung, incidence (animals affected/total) [1] | Lung, incidence of inflammation [1] | Common epitope for CD4 and CD8 T cells (in words) (CD4 and CD8 T cells) | other results
Myhc 334–352: cardiac myosin heavy chain-α 334–352 (DSAFDVLSFTAEEKAGVYK; UniProt Q02566 334-352, looked up, fragment) |  |  |  |  |  |  |  |  |  |  |  |  |  | common epitopes for both CD4 and CD8 T cells | 
interphotoreceptor retinoid-binding protein 1–20: CD4 and CD8 common epitope (GPTHLFQPSLVLDMAKVLLD; UniProt P10745 18-37, looked up, fragment) |  |  |  |  |  |  |  |  |  |  |  |  |  | common epitopes for both CD4 and CD8 T cells | 
myelin oligodendrocyte glycoprotein 35–55: CD4 and CD8 common epitope (MEVGWYRSPFSRVVHLYRNGK; UniProt Q61885 63-83, looked up, fragment) |  |  |  |  |  |  |  |  |  |  |  |  |  | common epitopes for both CD4 and CD8 T cells | 
β1ARAc 191–210: N-terminal acetylated mouse β1-adrenergic receptor peptide 191–210 (Ac-FLPILMHWWRAESDEARRCY; UniProt P34971 191-210, looked up, fragment) |  |  |  |  |  |  |  |  |  |  |  |  |  |  | Myocarditis incidence (A/J mice (hearts); [4]): 0%; Myocarditis incidence (animals with disease/total) (A/J mice (hearts); [4]): 0/5; Inflammatory foci (A/J mice (hearts); acetylated peptides in CFA/PT, mean ± SEM of myocarditic animals, day 21): 0; T cell responses (in words) [2]: non-T cell activators; Antibody response, total Igs (in words) [3]: to some degree
β1ARAc 201–220: N-terminal acetylated mouse β1-adrenergic receptor peptide 201–220 (Ac-AESDEARRCYNDPKCCDFVT; cysteine pairing not given here; UniProt P34971 201-220, looked up, fragment) |  |  |  |  |  |  |  |  |  |  |  |  |  |  | Myocarditis induction (in words) (A/J mice (hearts); acetylated peptide, standard CFA/PT protocol): failed to induce myocarditis; T cell responses (in words) [2]: non-T cell activators; IA^k binding (in words) (IA^k; soluble IA^k monomers, reference HEL 46–61, Figure S1B): failed to bind IA^k molecule; Antibody isotypes produced, IgG and IgM (in words) [3]: all IgG isotypes (IgG1, IgG2a, IgG2b, IgG3) including IgM; Antibody response, total Igs (in words) [3]: antibody response

The next lines start with results.

Brain, inflammatory foci [1] | Kidney, inflammatory foci [1] | Liver, inflammatory foci [1] | Lung, inflammatory foci [1] | IC50 (IA^k) | Compound | Brain, incidence (animals affected/total) [1] | Brain, incidence of inflammation [1] | Kidney, incidence (animals affected/total) [1] | Kidney, incidence of inflammation [1] | Liver, incidence (animals affected/total) [1] | Liver, incidence of inflammation [1] | Lung, incidence (animals affected/total) [1] | Lung, incidence of inflammation [1] | Common epitope for CD4 and CD8 T cells (in words) (CD4 and CD8 T cells) | other results
0 | 0 | 20.33 ± 4.83 | 2.50 ± 1.34 | 18.6 ± 1.23 µM | CC[C@H](C)[C@H](NC(=O)[C@H](C)NC(=O)[C@H](Cc1ccc(O)cc1)NC(=O)[C@H](C)NC(=O)[C@H](CCCNC(=N)N)NC(=O)[C@H](CC(N)=O)NC(=O)[C@@H](NC(=O)[C@@H](NC(=O)[C@H](Cc1ccccc1)NC(=O)[C@H](CC(=O)O)NC(=O)[C@H](CS)NC(=O)[C@H](CS)NC(=O)[C@H](CCCCN)NC(=O)[C@@H]1CCCN1C(=O)[C@H](CC(=O)O)NC(=O)[C@H](CC(N)=O)NC(C)=O)C(C)C)[C@@H](C)O)C(=O)N[C@@H](C)C(=O)N[C@@H](CO)C(=O)N[C@@H](CO)C(=O)N[C@H](C(=O)O)C(C)C [β1ARAc 211–230] (Ac-NDPKCCDFVTNRAYAIASSV-OH) | 0/5 | 0% | 0/6 | 0% | 6/6 | 100% | 5/6 | 83% |  | 
0 | 0 | 29.17 ± 6.83 | 4.33 ± 0 .21 | 26.1 ± 12.4 µM | Ac-TRARARALVCTVWAISALVS [β1ARAc 171–190] | 0/6 | 0% | 0/6 | 0% | 6/6 | 100% | 6/6 | 100% |  | 
0 | 0 | 44.50 ± 11.66 | 3.17 ± 0.60 | 97.1 ± 2.07 µM | Ac-TVWAISALVSFLPILMHWWR [β1ARAc 181–200] | 0/6 | 0% | 0/6 | 0% | 6/6 | 100% | 6/6 | 100% |  | 
